US20260283927A1, “CRYSTALLINE FORM OF CERAMIDE NP AND COMPOSITION INCLUDING THE SAME” (CRODA KOREA LTD., priority 2023, published 2026)

Assay type: physicochemical
Procedure: Thermogravimetric analysis (TGA) was performed using a Mettler TGA 2 equipped with a 34 position auto-sampler. The instrument was calibrated for energy and temperature using certified Isoderm and Nickel. 10.01 mg of the ceramide NP powder of Example 1 was added to a pinhole aluminum pan and heated from 20° C. to 800° C. at 10° C./min to perform thermogravimetric analysis. The TGA results of the ceramide NP powder of Example 1 are shown in FIG. 7, and the TGA results of the ceramide NP powder of Comparative Example 1 are shown in FIG. 8. The TGA results of ceramide NP powder of Example 1 and the ceramide NP powder of Comparative Example 1 are compared to each other by being arranged to overlap each other in FIG. 9.

| Compound | mass remaining | stability compared with ceramide NP powder of Comparative Example 1 | temperature at which decomposition began (no weight loss until then) (TGA, heated from 20° C. to 800° C. at 10° C./min) [°C] |
| --- | --- | --- | --- |
| CCCCCCCC/C=C\CCCCCCCC(=O)N[C@@H](CO)[C@H](O)[C@H](O)CCCCCCCCCCCCCC [Example 1, ceramide NP] | about 95% | more stable | 200 |
| ceramide NP [Comparative Example 1, reference compound] | about 95% |  |  |
